The assay concerns the target human CCR2 (Homo sapiens, UniProt P41597). Kind of assay: CCR2 functional calcium assay (FLIPR calcium flux, hMCP-1 challenge). The format is cell-based. Details: expressed in transfected cells; host or cells: HEK293 EBNA cells. As to conditions: HEK293 EBNA cells transfected with human CCR2, hMCP-1 challenge; read-out: Functional CCR2 fKi. The text has this: The CCR2 receptor couples through the Gi/Gq signaling pathway and results in activation of calcium mobilization. The functional activity of test compounds was routinely tested by measuring the ability of compounds to antagonize CCR2 activity in a dose dependent manner, in HEK293 EBNA cells transfected with the human CCR2 receptor (hMCP-1 challenge), using a calcium flux Fluorescent Imaging Plate Reader FLIPR assay. Non-transfected HEK293 EBNA cells were used as control of non-specific response.
Briefly, test compounds were dissolved in dimethyl sulfoxide (DMSO) to a concentration of 10 mM and stored in matrix screenmate racks. The required amount of compound was transferred to 96-well compound plates on the day of assay and diluted in assay buffer to the required final concentration; dose-response measurements were assayed by making 1:3 serial dilutions to produce 10 point curves. The compounds were then transferred to 384-well assay plates ready for use. Top concentrations were adjusted depending on the potency of the compounds with a typical concentration range of 30 μM to 0.5 nM being used. The assay buffer used was HBSS buffer supplemented with 20 mM HEPES and 0.1% BSA, pH7.4. The loading/wash buffers were the same as the assay buffer.
Cells were suspended in culture medium at a density of 10000 cells/50 μl (the cell culture media composition was DMEM high glucose supplemented with 10% dialyzed FBS, 250 μg/ml Geneticin, and 400 μg/ml Hygromycin B), transferred to 384-well black/clear Costar plates (Costar #3712) (50 μl/well) and incubated at 37° C., in a 5% CO2/95% air humidified incubator for 16 h. The cells were washed with assay buffer at 37° C. using the Biotek ELx 405, washing 3 times, leaving 20 μl buffer in the well. 20 μl Fluo-4 (Fluo-4 stock solution (1 mM) was prepared by dissolving one vial of Fluo-4 (50 μg) in 45 μl of pluronic acid (240 mg/ml in DMSO). This stock solution of Fluo-4 was then diluted 250 times with loading buffer to give a Fluo-4 concentration of 4 μM. The dye solution (used within 2 h and kept away from light) was added to each well using a repeating multichannel pipette; the cells were then incubated at 37° C. for 60 min. Following the incubation, cells were washed in assay buffer at 37° C. using the Biotek ELx 405, washing 3 times, leaving 40 μl in each well and incubated for 10 min at 37° C. before use. A combined agonist/antagonist protocol was used. Compound (antagonist) was added to the cell plate using the FLIPR. Basal fluorescence was recorded every second for 10 seconds prior to compound addition (10 μl) and fluorescence recorded every second for 1 minute then every 6 seconds for a further 1 minute. Agonist (MCP-1) was then added using the FLIPR and fluorescence recorded as described above.
The positive control (agonist) was human recombinant MCP-1 which was stored as a stock concentration of 10 μM in distilled water and stored at −20° C. (maximal response: 30 nM; EC50 dose: 3-5 nM). The reference compound (antagonist) was RS102895 which was used as a 10 mM DMSO solution and stored at −20° C.
FLIPR responses were measured as peak minus basal fluorescence intensity and were expressed as a percentage of EC50 MCP-1 challenge. Curve-fitting and parameter estimation were carried out using GraphPad Prism 4.0 (GraphPad Software Inc., San Diego, Calif.).

pKi: −log10 of the molar value.

Sequence of human CCR2 (P41597 whole entry): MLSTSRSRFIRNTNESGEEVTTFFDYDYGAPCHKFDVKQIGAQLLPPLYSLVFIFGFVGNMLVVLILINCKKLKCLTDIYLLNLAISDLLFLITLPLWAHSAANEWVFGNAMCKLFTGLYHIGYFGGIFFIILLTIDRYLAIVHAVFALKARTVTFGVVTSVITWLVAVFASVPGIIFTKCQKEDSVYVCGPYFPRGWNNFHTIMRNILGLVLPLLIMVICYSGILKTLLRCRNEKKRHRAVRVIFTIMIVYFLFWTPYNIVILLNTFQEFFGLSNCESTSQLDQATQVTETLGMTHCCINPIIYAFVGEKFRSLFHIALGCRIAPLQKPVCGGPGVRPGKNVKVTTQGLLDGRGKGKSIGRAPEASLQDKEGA

Regarding `Cc1nc2c(C(=O)NC[C@@H]3CCCO3)cnn2c(O)c1Cc1ccc(Cl)cc1` (stereo in doubt) [Example 110, 6-[(4-Chlorophenyl)methyl]-7-hydroxy-5-methyl-N-(oxolan-2-ylmethyl)pyrazolo-[1,5-a] pyrimidine-3-carboxamide], the pKi was 6.00 to 7.00.
Then `Cc1nc2ccnn2c(O)c1Cc1ccc(C(F)(F)F)cc1` [Example 2, 5-Methyl-6-{[4-(trifluoromethyl)phenyl]methyl}pyrazolo[1,5-a]pyrimidin-7-ol], with 6.00 to 7.00; and `Oc1c(Cc2cccc(F)c2)c(-c2cnccn2)nc2cncn12` [Example 3, 3-[(3-Fluorophenyl)methyl]-2-(pyrazin-2-yl)imidazo[1,5-a]pyrimidin-4-ol], with 6.00 to 7.00.
As for `CCc1nc2ccnn2c(O)c1Cc1cc(F)cc(C(F)(F)F)c1` [Example 4, 5-Ethyl-6-{[3-fluoro-5-(trifluoromethyl)phenyl]methyl}pyrazolo[1,5-a]pyrimidin-7-ol], the pKi is > 8.00.
Take `Cc1nc2ccnn2c(O)c1Oc1cccc(F)c1` [Example 5, 6-(3-Fluorophenoxy)-5-methylpyrazolo[1,5-a]pyrimidin-7-ol]: the pKi was 7.00 to 8.00.
Regarding `COC(=O)c1nc2ccnn2c(O)c1Cc1ccc(Cl)cc1` [Example 6, Methyl 6-[(4-chlorophenyl)methyl]-7-hydroxypyrazolo[1,5-a]pyrimidine-5-carboxylate], the pKi was 7.00 to 8.00.
For the compound `Cc1nc2ccnn2c(O)c1Cc1cccc(F)c1F` [Example 7, 6-[(2,3-Difluorophenyl)methyl]-5-methyl-pyrazolo[1,5-a]pyrimidine-7-ol], the pKi was 6.00 to 7.00.
On to `Cc1nc2ccnn2c(O)c1Cc1ccc(F)c(C#N)c1` [Example 8, 2-Fluoro-5-({7-hydroxy-5-methylpyrazolo-(1,5-a]pyrimidin-6-yl}methyl)benzonitrile], for which the pKi is 6.00 to 7.00.
Then `Cc1nc2ccnn2c(O)c1Cc1ccc(Cl)c(Br)c1` [Example 9, 6-[(3-Bromo-4-chlorophenyl)methyl]-5-methylpyrazolo[1,5-a]pyrimidin-7-ol], with 7.00 to 8.00; and `COc1cccc(Cc2c(C)nc3ccnn3c2O)c1` [Example 10, 6-[(3-Methoxyphenyl)methyl]-5-methyl-pyrazolo[1,5-a]pyrimidin-7-ol], with 6.00 to 7.00; and `Cc1nc2ccnn2c(O)c1C(C)c1ccc(Cl)cc1` (stereo not shown) [Example 11, 6-[1-(4-Chlorophenyl)ethyl]-5-methyl-pyrazolo[1,5-a]pyrimidin-7-ol], with 6.00 to 7.00.
Then `CCc1nc2ccnn2c(O)c1Cc1cc(F)cc(F)c1` [Example 12, 6-[(3,5-difluorophenyl)methyl]-5-ethyl-pyrazolo[1,5-a]pyrimidin-7-ol], with > 8.00; and `CCc1nc2ccnn2c(O)c1Cc1cc(F)c(F)c(F)c1` [Example 13, 5-Ethyl-6-[(3,4,5-trifluorophenyl)-methyl]pyrazolo[1,5-a]pyrimidin-7-ol], with > 8.00.
Then `CCc1nc2ccnn2c(O)c1Cc1ccc(F)c(Cl)c1` [Example 14, 6-[(3-Chloro-4-fluorophenyl)methyl]-5-ethylpyrazolo[1,5-a]pyrimidin-7-ol], with > 8.00; and `CCc1nc2ccnn2c(O)c1Cc1ccc(Cl)c(Cl)c1` [Example 15, 6-[(3,4-Dichlorophenyl)methyl]-5-ethylpyrazolo[1,5-a]pyrimidin-7-ol], with > 8.00; and `CCCc1nc2ccnn2c(O)c1Cc1ccc(Cl)c(Cl)c1` [Example 17, 6-[(3,4-Dichlorophenyl)methyl]-5-propyl-pyrazolo[1,5-a]pyrimidin-7-ol], with > 8.00.
On to `Oc1c(Cc2ccccc2)c(C2CC2)nc2ccnn12` [Example 18, 6-Benzyl-5-cyclopropylpyrazolo[1,5-a]-pyrimidin-7-ol], for which the pKi was > 8.00.
Consider `Oc1c(Cc2ccc(OC(F)(F)F)cc2)c(C2CC2)nc2ccnn12` [Example 19, 5-Cyclopropyl-6-{[4-(trifluoromethoxy)-phenyl]methyl}pyrazolo[1,5-a]pyrimidin-7-ol], for which the pKi was 7.00 to 8.00.
As for `Oc1c(Cc2cccc(OC(F)(F)F)c2)c(C2CC2)nc2ccnn12` [Example 20, 5-Cyclopropyl-6-{[3-(trifluoromethoxy)-phenyl]methyl}pyrazolo[1,5-a]pyrimidin-7-ol], the pKi was 7.00 to 8.00.
As for `Oc1c(Cc2ccc(C(F)(F)F)cc2)c(C2CC2)nc2ccnn12` [Example 23], the pKi is > 8.00.
Then `Oc1c(Cc2ccc(F)c(F)c2)c(C2CC2)nc2ccnn12` [Example 24, 5-Cyclopropyl-6-[(3,4-difluorophenyl)-methyl]pyrazolo[1,5-a]pyrimidin-7-ol], with > 8.00.
Take `Oc1c(Cc2cc(F)cc(F)c2)c(C2CC2)nc2ccnn12` [Example 25, 5-Cyclopropyl-6-[(3,5-difluorophenyl)-methyl]pyrazolo[1,5-a]pyrimidin-7-ol]: the pKi is > 8.00.
In the case of `Oc1c(Cc2cc(F)c(F)c(F)c2)c(C2CC2)nc2ccnn12` [Example 26, 5-Cyclopropyl-6-[(3,4,5-trifluorophenyl)-methyl]pyrazolo[1,5-a]pyrimidin-7-ol], the pKi is > 8.00.
Consider `Oc1c(Cc2ccc(Cl)c(F)c2)c(C2CC2)nc2ccnn12` [Example 27, 6-[(4-Chloro-3-fluorophenyl)methyl]-5-cyclopropylpyrazolo[1,5-a]pyrimidin-7-ol], for which the pKi is > 8.00.
Take `Oc1c(Cc2ccc(F)c(Cl)c2)c(C2CC2)nc2ccnn12` [Example 28, 6-[(3-Chloro-4-fluorophenyl)methyl]-5-cyclopropylpyrazolo[1,5-a]pyrimidin-7-ol]: the pKi was > 8.00.
Turning to `Oc1c(Cc2cc(F)cc(Cl)c2)c(C2CC2)nc2ccnn12` [Example 29, 6-[(3-Chloro-5-fluorophenyl)methyl]-5-cyclopropylpyrazolo[1,5-a]pyrimidin-7-ol], the pKi is > 8.00.
For `Oc1c(Cc2ccc(Cl)c(Cl)c2)c(C2CC2)nc2ccnn12` [Example 30, 5-Cyclopropyl-6-[(3,4-dichlorophenyl)-methyl]pyrazolo[1,5-a]pyrimidin-7-ol], the pKi was > 8.00.
As for `Oc1c(Cc2ccc(F)c(C(F)(F)F)c2)c(C2CC2)nc2ccnn12` [Example 31, 5-Cyclopropyl-6-{[4-fluoro-3-(trifluoro-methyl)phenyl]methyl}pyrazolo[1,5-a]-pyrimidin-7-ol], the pKi was > 8.00.
Then `Oc1c(Cc2ccc(C(F)(F)F)c(F)c2)c(C2CC2)nc2ccnn12` [Example 32, 5-Cyclopropyl-6-{[3-fluoro-4-(trifluoromethyl)phenyl]methyl}pyrazolo[1,5-a]pyrimidin-7-ol], with > 8.00; and `Oc1c(Cc2cc(Cl)cc(Cl)c2)c(C2CC2)nc2ccnn12` [Example 34, 5-Cyclopropyl-6-[(3,5-dichlorophenyl)-methyl]pyrazolo[1,5-a]pyrimidin-7-ol], with > 8.00.
Take `CC(C)c1nc2ccnn2c(O)c1Cc1ccc(F)c(F)c1` [Example 35, 6-[(3,4-Difluorophenyl)methyl]-5-(propan-2-yl)pyrazolo[1,5-a]pyrimidin-7-ol]: the pKi is > 8.00.
`CC(C)c1nc2ccnn2c(O)c1Cc1cc(F)c(F)c(F)c1` [Example 36, 5-(Propan-2-yl)-6-[(3,4,5-trifluorophenyl)-methyl]pyrazolo[1,5-a]pyrimidin-7-ol]: the pKi was > 8.00.
Regarding `CC(C)c1nc2ccnn2c(O)c1Cc1ccc(Cl)c(F)c1` [Example 38, 6-[(4-Chloro-3-fluorophenyl)methyl]-5-(propan-2-yl)pyrazolo[1,5-a]pyrimidin-7-ol], the pKi was > 8.00.
Take `CC(C)c1nc2ccnn2c(O)c1Cc1cc(F)cc(Cl)c1` [Example 39, 6-[(3-Chloro-5-fluorophenyl)methyl]-5-(propan-2-yl)pyrazolo[1,5-a]pyrimidin-7-ol]: the pKi was > 8.00.

(Values after patent publication US20130252951A1, “7-HYDROXY-PYRAZOLO[1,5-A] PYRIMIDINE COMPOUNDS AND THEIR USE AS CCR2 RECEPTOR ANTAGONISTS” (Proximagen Limited, priority 2010, published 2013).)
